Where only a bound is given, the exact number is not on record here.

In the test the target is T1, PI3K alpha (Homo sapiens, UniProt P42336).
T1 construct: purchased Millipore Upstate
T1 sequence (P42336 whole entry): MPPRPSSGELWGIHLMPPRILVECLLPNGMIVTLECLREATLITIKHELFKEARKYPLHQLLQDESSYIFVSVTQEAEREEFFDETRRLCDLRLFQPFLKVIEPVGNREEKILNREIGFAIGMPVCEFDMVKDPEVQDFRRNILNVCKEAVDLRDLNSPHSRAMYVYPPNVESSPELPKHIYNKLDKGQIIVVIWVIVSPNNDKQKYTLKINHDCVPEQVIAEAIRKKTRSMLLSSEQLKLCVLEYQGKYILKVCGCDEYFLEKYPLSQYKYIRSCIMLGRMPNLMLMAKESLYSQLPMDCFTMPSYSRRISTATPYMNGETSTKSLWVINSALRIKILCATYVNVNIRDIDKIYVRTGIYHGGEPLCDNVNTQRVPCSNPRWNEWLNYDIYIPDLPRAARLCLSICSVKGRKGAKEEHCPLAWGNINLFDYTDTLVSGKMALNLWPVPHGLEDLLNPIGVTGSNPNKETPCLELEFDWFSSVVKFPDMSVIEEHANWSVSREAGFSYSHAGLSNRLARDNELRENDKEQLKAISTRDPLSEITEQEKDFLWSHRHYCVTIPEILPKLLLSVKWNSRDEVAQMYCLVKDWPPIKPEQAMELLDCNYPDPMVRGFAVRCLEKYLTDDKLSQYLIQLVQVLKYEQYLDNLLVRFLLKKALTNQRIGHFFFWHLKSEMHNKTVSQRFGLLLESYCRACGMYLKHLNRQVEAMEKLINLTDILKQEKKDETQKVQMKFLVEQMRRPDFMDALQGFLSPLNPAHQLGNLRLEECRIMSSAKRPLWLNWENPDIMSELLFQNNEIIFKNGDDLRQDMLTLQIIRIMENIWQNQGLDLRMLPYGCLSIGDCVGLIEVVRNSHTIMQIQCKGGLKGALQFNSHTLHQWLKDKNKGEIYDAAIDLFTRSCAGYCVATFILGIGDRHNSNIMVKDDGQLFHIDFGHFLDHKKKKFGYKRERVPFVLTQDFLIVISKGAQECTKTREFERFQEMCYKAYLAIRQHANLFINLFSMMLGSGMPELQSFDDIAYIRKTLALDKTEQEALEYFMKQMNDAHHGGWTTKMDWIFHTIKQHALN
T1 sequence (P27986 whole entry partner): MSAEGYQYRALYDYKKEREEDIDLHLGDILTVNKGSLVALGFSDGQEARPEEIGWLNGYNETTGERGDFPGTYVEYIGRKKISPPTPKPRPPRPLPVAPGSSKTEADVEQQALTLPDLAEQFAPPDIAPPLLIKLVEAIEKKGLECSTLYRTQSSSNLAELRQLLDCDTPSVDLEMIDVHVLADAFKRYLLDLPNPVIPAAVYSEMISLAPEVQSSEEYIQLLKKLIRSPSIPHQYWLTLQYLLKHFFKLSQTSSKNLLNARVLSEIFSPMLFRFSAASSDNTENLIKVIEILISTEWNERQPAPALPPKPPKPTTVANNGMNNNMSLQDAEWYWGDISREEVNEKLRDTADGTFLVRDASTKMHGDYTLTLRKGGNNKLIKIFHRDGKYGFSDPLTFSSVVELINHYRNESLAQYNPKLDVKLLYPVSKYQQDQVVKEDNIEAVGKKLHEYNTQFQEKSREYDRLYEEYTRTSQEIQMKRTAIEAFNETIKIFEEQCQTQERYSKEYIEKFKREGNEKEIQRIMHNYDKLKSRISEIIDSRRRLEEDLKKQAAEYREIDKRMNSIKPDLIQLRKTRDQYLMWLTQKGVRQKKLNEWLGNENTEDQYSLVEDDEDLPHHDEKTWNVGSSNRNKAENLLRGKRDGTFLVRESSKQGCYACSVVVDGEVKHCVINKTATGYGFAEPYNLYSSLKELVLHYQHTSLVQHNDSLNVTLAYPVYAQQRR
The experiment in a line: P110 Alpha TR-FRET Assay (PI3K alpha kinase assay, HTRF Transcreener ADP Assay). The format is biochemical. The conditions noted are these: PI3K (WT). Put shortly: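 Enzyme (50 ng) and compound were preincubated 20 min in HEPES pH 7.5 buffer containing MgCl2, DTT and vanadate before 10 μM ATP plus 5 μM PIP2 substrate was added for 20 min. ADP produced was quantified by TR-FRET (ADP-d2, anti-ADP cryptate, 1 h).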
In general terms: TR-FRET usually uses a lanthanide donor and a delayed reading to cut background.
For orientation: IC50 means the concentration that inhibits the measured activity by half. The compound `CS(=O)(=O)N1CCN(C(=O)CCNc2nc(-c3cccc4[nH]ncc34)nc(N3CCOCC3)n2)CC1` [Compound 1191, 3-((4-(1H-indazol-4-yl)-6-morpholino-1,3,5-triazin-2-yl)amino)-1-(4-(methylsulfonyl)piperazin-1-yl)propan-1-one] came in with an IC50 of less than 5 µM.

`CN(CC(=O)O)c1nc(-c2cccc(O)c2)nc(N2CCOCC2)n1` [Compound 1192, 2-((4-(3-hydroxyphenyl)-6-morpholino-1,3,5-triazin-2-yl)(methyl)amino)acetic acid] gave an IC50 of less than 5 µM.

`NC(=O)Cc1ccccc1Nc1nc(-c2cccc3[nH]ncc23)nc(N2CCOCC2)n1` [Compound 1194, 2-(2-((4-(1H-indazol-4-yl)-6-morpholino-1,3,5-triazin-2-yl)amino)phenyl)acetamide] had an IC50 of less than 5 µM.

For `NC(=O)Cc1cccc(Nc2nc(-c3cccc4[nH]ncc34)nc(N3CCOCC3)n2)c1` [Compound 1195, 2-(3-((4-(1H-indazol-4-yl)-6-morpholino-1,3,5-triazin-2-yl)amino)phenyl)acetamide], the IC50 is less than 5 µM.

Regarding `O=C1NCC2CN(c3nc(-c4cccc5[nH]ncc45)nc(N4CCOCC4)n3)CCC12` (centres unmarked) [Compound 1196, 5-8-[4-1-(1H-indazol-4-yl)-6-5-(morpholin-4-yl)-1,3,5-triazin-2-yl]-octahydro-1H-pyrrolo[3,4-c]pyridin-1-one], the IC50 was less than 5 µM.

As to `COC(=O)CNc1nc(-c2cccc(N)c2)nc(N2CCOCC2)n1` [Compound 1197, methyl 2-((4-(3-aminophenyl)-6-morpholino-1,3,5-triazin-2-yl)amino)acetate], the half-maximal inhibitory concentration (IC50) is less than 5 µM.

Take `NC(=O)c1ccccc1Nc1nc(-c2cccc3[nH]ncc23)nc(N2CCOCC2)n1` [Compound 1198, 2-((4-(1H-indazol-4-yl)-6-morpholino-1,3,5-triazin-2-yl)amino)benzamide]: the IC50 was more than 5 µM.

`Nc1cccc(-c2nc(NCC(=O)O)nc(N3CCOCC3)n2)c1` [Compound 1199, 2-((4-(3-aminophenyl)-6-morpholino-1,3,5-triazin-2-yl)amino)acetic acid] displayed an IC50 of more than 5 µM.

`CN(c1cccc(C(N)=O)c1)c1nc(-c2cccc3[nH]ncc23)nc(N2CCOCC2)n1` [Compound 1200, 3-((4-(1H-indazol-4-yl)-6-morpholino-1,3,5-triazin-2-yl)(methyl)amino)benzamide] showed an IC50 of less than 5 µM.

In the case of `NC(=O)c1cccc(Nc2nc(-c3cccc4[nH]ncc34)nc(N3CCOCC3)n2)c1` [Compound 1201, 3-((4-(1H-indazol-4-yl)-6-morpholino-1,3,5-triazin-2-yl)amino)benzamide], the half-maximal inhibitory concentration (IC50) is less than 5 µM.

As for `O=C(O)c1cccc(Nc2nc(-c3cccc4[nH]ncc34)nc(N3CCOCC3)n2)c1` [Compound 1202, 3-((4-(1H-indazol-4-yl)-6-morpholino-1,3,5-triazin-2-yl)amino)benzoic acid], the IC50 was less than 5 µM.

`O=C(O)CNc1nc(-c2ccccc2)nc(N2CCOCC2)n1` [Compound 1203, 2-((4-morpholino-6-phenyl-1,3,5-triazin-2-yl)amino)acetic acid] had an IC50 of more than 5 µM.

`CN(C)C(=O)c1ccc(Nc2nc(-c3cccc4[nH]ncc34)nc(N3CCOCC3)n2)cc1` [Compound 1204, 4-((4-(1H-indazol-4-yl)-6-morpholino-1,3,5-triazin-2-yl)amino)-N,N-dimethylbenzamide] displayed an IC50 of less than 5 µM.

`c1cc(Nc2nc(-c3cccc4[nH]ncc34)nc(N3CCOCC3)n2)c2cn[nH]c2c1` [Compound 1205, N-(4-(1H-indazol-4-yl)-6-morpholino-1,3,5-triazin-2-yl)-1H-indazol-4-amine] yielded an IC50 of less than 5 µM.

For `O=C1CCN(c2nc(-c3cccc4[nH]ncc34)nc(N3CCOCC3)n2)CCN1` [Compound 1206, 1-21-[4-1-(1H-indazol-4-yl)-6-5-(morpholin-4-yl)-1,3,5-triazin-2-yl]-1,4-diazepan-5-one], the IC50 was less than 5 µM.

Compound `COC(=O)C1CCN(c2nc(-c3cccc4[nH]ncc34)nc(N3CCOCC3)n2)C1` (centres unmarked) [Compound 1207, methyl 1-12-[4-1-(1H-indazol-4-yl)-6-5-(morpholin-4-yl)-1,3,5-triazin-2-yl]pyrrolidine-3-carboxylate] had an IC50 of less than 5 µM.

For `ON=C1CCN(c2nc(-c3cccc4[nH]ncc34)nc(N3CCOCC3)n2)CC1` [Compound 1208, N-{1-8-[4-1-(1H-indazol-4-yl)-6-5-(morpholin-4-yl)-1,3,5-triazin-2-yl]piperidin-4-ylidene}hydroxylamine], the IC50 was less than 5 µM.

On to `CN(C)C(=O)C(Cc1ccccc1)Nc1nc(-c2cccc3[nH]ncc23)nc(N2CCOCC2)n1` (centres unmarked) [Compound 1209, 2-((4-(1H-indazol-4-yl)-6-morpholino-1,3,5-triazin-2-yl)amino)-N,N-dimethyl-3-phenylpropanamide], for which the 50% inhibitory concentration (IC50) was less than 5 µM.

Compound `CN(C)C(=O)C(CCS(C)(=O)=O)Nc1nc(-c2cccc3[nH]ncc23)nc(N2CCOCC2)n1` (centres unmarked) [Compound 1210, 2-((4-(1H-indazol-4-yl)-6-morpholino-1,3,5-triazin-2-yl)amino)-N,N-dimethyl-4-(methylsulfonyl)butanamide] showed an IC50 of less than 5 µM.

`CS(=O)(=O)N1CCN(c2nc(-c3cccc4[nH]ncc34)nc(N3CCOCC3)n2)CC1` [Compound 1211, 4-7-[4-3-(4-16-methanesulfonylpiperazin-1-yl)-6-5-(morpholin-4-yl)-1,3,5-triazin-2-yl]-1H-indazole] displayed an IC50 of less than 5 µM.

As for `Oc1nc(-c2cccc3[nH]ncc23)nc(N2CCOCC2)n1` [Compound 1212, 4-1-(1H-indazol-4-yl)-6-5-(morpholin-4-yl)-1,3,5-triazin-2-ol], the half-maximal inhibitory concentration (IC50) was less than 5 µM.

As to `c1cc(-c2nc(N3CCCNCC3)nc(N3CCOCC3)n2)c2cn[nH]c2c1` [Compound 1213, 4-12-[4-3-(1,4-diazepan-1-yl)-6-5-(morpholin-4-yl)-1,3,5-triazin-2-yl]-1H-indazole], the 50% inhibitory concentration (IC50) is less than 5 µM.

`CN(C)C(=O)[C@H]1CC[C@H](Nc2nc(-c3cccc4[nH]ncc34)nc(N3CCOCC3)n2)CC1` [Compound 1214, (1r,4r)-4-((4-(1H-indazol-4-yl)-6-morpholino-1,3,5-triazin-2-yl)amino)-N,N-dimethylcyclohexanecarboxamide] gave an IC50 of less than 5 µM.

`CNC(=O)[C@H]1CC[C@@H](Nc2nc(-c3cccc4[nH]ncc34)nc(N3CCOCC3)n2)CC1` [Compound 1215, 4-((4-(1H-indazol-4-yl)-6-morpholino-1,3,5-triazin-2-yl)amino)-N-methylcyclohexanecarboxamide] had an IC50 of less than 5 µM.

Regarding `CN(C)C(=O)[C@H]1CC[C@@H](Nc2nc(-c3cccc4[nH]ncc34)nc(N3CCOCC3)n2)CC1` [Compound 1216, 4-((4-(1H-indazol-4-yl)-6-morpholino-1,3,5-triazin-2-yl)amino)-N,N-dimethylcyclohexanecarboxamide], the IC50 is less than 5 µM.

`CN(C)C(=O)[C@H]1CCCN1c1nc(-c2cccc3[nH]ncc23)nc(N2CCOCC2)n1` [Compound 1217, (2R)-1-7-[4-1-(1H-indazol-4-yl)-6-5-(morpholin-4-yl)-1,3,5-triazin-2-yl]-N,N-dimethylpyrrolidine-2-carboxamide] displayed an IC50 of less than 5 µM.

The values above are taken from US9481670B2, “Triazine compounds” (Sphaera Pharma PTE. Ltd., priority 2011, dated 2016).
